From paper PMC3491656 (Journal of medicinal chemistry, 2012) come the findings set out here.

SMILES strings stand for the structures. Entries after “also recorded” stand apart in the source; their conditions may differ.

Series [1] is described as follows: Preliminary in vivo metabolism study. The following applies: Supplemental Figure 2.
Series [2] deals with TrkB (Rattus norvegicus, UniProt Q63604). Description: TrkB activation in primary cortical cultures. Particulars: 500 nM, 15 min; for TrkB activation (agonistic activity): primary cortical cultures from E17 rat embryos, p-TrkB immunoblotting (Figure 2B); for TrkB and Akt activation in primary neurons: rat primary neurons, immunoblotting and p-Akt ELISA (Figure 4B). The series is classed as cell-based. (In general: In western blotting, separated proteins are transferred to a membrane and probed.)

For series [3], the target named is T1, TrkB (Mus musculus, UniProt P15209). In words: TrkB activation in mouse brain after single oral administration. The series is classed as in vivo, C57 BL/6J mice. The following applies: 1 mg/kg oral; for TrkB activation in mouse brain: hippocampus.
Series [4] concerns male C57BL/6J mice. Description: Forced swim test. In kind it is in vivo. The following applies: for immobility in forced swim test: 5 mg/kg oral once a day for 21 days.
Series [5] relates to male C57BL/6J mice. Description: Locomotor activity assay. In kind it is in vivo.
For series [6], the target named is T1, TrkB. In words: TrkB activation in mouse brain after chronic oral treatment. In kind it is in vivo, C57 BL/6J mice. The following applies: for TrkB phosphorylation in cortex and hippocampus: 5 mg/kg oral, vs vehicle; for TrkB phosphorylation in cortex and hippocampus / TrkB activation in brain tissues (anti-p-TrkB Y816 and Y706 immunoblotting): 3 weeks; for TrkB activation in brain tissues (anti-p-TrkB Y816 and Y706 immunoblotting) / TrkB phosphorylation in hippocampus (immunohistochemistry, anti-p-TrkB 816): 2.5 mg/kg oral; for TrkB activation in brain tissues (anti-p-TrkB Y816 and Y706 immunoblotting): after behavioral tests; for TrkB phosphorylation in hippocampus (immunohistochemistry, anti-p-TrkB 816): chronic, brain sections.

The next series has as its target TrkA receptor (Mus musculus, UniProt Q3UFB7). Description: TrkA activation in mouse brain after chronic oral treatment. In kind it is in vivo, mice. The following applies: 5 mg/kg oral, anti-p-TrkA 794.
For another series, the system named is HepG2 cells. Description: Comet assay. In kind it is cell-based, human. Particulars: 100 μM, 24 h.
The test system of a further series is p-Akt and p-MAPK. Description: Downstream p-Akt and p-MAPK signaling in mouse brain. In kind it is in vivo, C57 BL/6J mice. Particulars: hippocampus; for downstream p-Akt and p-MAPK signalings: 1 mg/kg oral, 4 h; for downstream p-Akt activity: 2.5 mg/kg oral, 3 weeks.
Series [7] in a line: In vivo pharmacokinetic studies in mice.
In series [8] the test system is male C57BL/6J mice. In words: Tail suspension test. In kind it is in vivo. The following applies: 2.5 mg/kg oral once a day for 3 weeks.
Series [9] in a line: Reactive metabolite screening. The series is classed as in vitro ADME. Particulars: reactive metabolic screening.
The target of a further series is hERG (Homo sapiens, UniProt Q12809). Description: hERG inhibition assay. The series is classed as in vitro ADME.
The nature of series [10]: Human plasma protein binding. In kind it is in vitro ADME. Particulars: 5 μM.
The test system of a further series is P-Akt S473. In words: P-Akt S473 ELISA in drug-treated mouse brain. The series is classed as in vivo, C57 BL/6J mice. The following applies: 1 mg/kg oral, time course. A general note: In an ELISA, binding on a coated surface is turned into a signal by an enzyme label.
The mark [11] stands for this setting: 5 mg/kg oral for 21 days, tested at day 22.
Setting [12] is: 2.5 mg/kg oral once a day for 3 weeks.

T1 sequence (P15209 32-821): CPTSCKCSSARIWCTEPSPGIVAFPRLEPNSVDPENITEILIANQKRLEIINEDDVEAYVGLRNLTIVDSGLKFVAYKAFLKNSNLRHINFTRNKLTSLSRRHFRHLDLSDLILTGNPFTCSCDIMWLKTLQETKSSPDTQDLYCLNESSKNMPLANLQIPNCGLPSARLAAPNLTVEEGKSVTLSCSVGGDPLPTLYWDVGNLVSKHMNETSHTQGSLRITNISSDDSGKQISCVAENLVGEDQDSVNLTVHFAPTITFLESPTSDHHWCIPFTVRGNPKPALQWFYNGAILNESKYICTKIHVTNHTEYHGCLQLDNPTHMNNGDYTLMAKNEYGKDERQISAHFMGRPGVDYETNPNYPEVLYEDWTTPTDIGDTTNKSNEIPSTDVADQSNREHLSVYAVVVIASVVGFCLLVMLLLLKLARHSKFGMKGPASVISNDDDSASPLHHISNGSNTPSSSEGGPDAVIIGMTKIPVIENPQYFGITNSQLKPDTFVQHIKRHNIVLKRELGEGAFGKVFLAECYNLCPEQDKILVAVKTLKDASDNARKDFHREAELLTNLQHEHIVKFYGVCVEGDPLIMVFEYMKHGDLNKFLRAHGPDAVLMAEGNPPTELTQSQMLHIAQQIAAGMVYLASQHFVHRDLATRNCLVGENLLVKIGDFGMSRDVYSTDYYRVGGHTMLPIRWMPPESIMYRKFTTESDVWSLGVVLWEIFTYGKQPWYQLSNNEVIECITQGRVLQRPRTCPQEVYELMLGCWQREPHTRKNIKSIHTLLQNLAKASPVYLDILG
Chain of TrkB (Rattus norvegicus, UniProt Q63604) (Q63604 32-821): as the sequence (P15209 32-821) above, with T3M, S9T, A10T, V32I, R63K, S84G, M153T, L185I, S394T, S770N counted along it
Chain of hERG (Q12809 whole entry): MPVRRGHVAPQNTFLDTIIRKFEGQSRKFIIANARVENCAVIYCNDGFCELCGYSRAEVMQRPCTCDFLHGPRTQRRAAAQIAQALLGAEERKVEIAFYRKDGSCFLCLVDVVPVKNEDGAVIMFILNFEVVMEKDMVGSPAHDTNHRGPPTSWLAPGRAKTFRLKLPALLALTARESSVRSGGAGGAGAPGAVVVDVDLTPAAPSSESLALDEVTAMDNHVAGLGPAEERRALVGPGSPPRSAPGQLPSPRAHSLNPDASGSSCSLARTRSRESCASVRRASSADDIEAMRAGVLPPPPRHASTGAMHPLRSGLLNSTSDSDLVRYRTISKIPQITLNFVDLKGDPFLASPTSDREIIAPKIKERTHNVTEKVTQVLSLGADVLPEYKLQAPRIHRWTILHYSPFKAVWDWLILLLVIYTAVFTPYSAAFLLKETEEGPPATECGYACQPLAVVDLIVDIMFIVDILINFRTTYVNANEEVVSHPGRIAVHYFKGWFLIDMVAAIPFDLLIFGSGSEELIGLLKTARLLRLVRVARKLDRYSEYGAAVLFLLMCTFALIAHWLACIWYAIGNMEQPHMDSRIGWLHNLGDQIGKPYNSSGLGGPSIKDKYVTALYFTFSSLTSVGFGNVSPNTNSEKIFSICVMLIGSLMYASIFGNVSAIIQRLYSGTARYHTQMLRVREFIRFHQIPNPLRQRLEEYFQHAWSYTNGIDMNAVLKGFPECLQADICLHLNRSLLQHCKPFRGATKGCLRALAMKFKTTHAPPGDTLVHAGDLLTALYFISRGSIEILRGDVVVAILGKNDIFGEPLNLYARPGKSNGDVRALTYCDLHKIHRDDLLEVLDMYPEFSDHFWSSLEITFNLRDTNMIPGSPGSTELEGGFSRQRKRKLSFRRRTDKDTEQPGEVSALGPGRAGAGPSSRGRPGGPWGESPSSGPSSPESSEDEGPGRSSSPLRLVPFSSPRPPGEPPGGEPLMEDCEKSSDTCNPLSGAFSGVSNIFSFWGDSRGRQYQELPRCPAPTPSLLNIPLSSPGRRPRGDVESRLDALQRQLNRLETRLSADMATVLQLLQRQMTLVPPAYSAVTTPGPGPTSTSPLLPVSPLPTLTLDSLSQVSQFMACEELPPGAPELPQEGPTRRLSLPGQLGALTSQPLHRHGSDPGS
Chain of TrkA receptor (Q3UFB7 34-799): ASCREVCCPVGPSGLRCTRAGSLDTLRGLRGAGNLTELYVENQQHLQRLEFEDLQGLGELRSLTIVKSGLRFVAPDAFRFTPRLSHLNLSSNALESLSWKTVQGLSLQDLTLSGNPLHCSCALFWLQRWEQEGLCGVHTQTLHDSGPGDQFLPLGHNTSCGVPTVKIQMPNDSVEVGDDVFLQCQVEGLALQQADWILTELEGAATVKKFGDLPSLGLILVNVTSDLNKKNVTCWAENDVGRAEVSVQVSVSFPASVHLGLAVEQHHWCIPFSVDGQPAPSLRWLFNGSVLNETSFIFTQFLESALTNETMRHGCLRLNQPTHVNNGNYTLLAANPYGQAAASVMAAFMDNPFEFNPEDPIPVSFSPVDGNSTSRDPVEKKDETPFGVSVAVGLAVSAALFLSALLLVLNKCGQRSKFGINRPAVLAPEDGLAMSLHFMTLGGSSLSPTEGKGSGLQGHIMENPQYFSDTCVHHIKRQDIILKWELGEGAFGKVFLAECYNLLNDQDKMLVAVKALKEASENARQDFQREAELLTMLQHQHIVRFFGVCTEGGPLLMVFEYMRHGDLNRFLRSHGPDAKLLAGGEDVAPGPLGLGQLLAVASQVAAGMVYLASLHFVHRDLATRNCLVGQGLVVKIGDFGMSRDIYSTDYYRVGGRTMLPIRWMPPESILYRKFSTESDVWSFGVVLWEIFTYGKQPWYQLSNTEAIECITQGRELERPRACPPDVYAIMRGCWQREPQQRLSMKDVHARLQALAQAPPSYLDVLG

Consider `O=c1cc(-c2ccccc2)oc2c(O)c(O)ccc12` [7,8-DHF, 7,8-dihydroxyflavone], for which the “in vivo metabolic pathways” value in series [1] was “subjected to oxidation, glucuronidation, sulfation and methylation”.

For `CN(C)c1ccc(-c2cc(=O)c3ccc4nc[nH]c4c3o2)cc1` [compound 11, 8-(4′-(Dimethylamino)phenyl)chromeno[7,8-d]imidazol-6(1H)-one], the “TrkB activation (agonistic activity)” value on TrkB [2] is reported as “stronger effect in triggering TrkB activation than the lead compound”. The “TrkB activation in mouse brain” value at TrkB [3] (4 h) is reported as “robustly activated TrkB; also recorded: strongest TrkB stimulatory effect”. Further, at TrkB [3] (time course), the “time at which TrkB activation faded away” value came to 16 h and the “time of peak TrkB activation in mouse brain” value came to 4 h. Also, in the series on male C57BL/6J mice [4], the “immobility in forced swim test” value was “significantly reduced the immobility”. The locomotor activity entry in the series with male C57BL/6J mice [5] (setting [11]) was “substantially augmented locomoter activity; also recorded: significantly increased the locomotor activity”. The “TrkB phosphorylation in cortex and hippocampus” value on TrkB [6] is “clearly escalated TrkB phosphorylation”. Besides, the “TrkA activation in mouse brain” value on TrkA receptor is on record as “TrkB but not TrkA is activated”. In addition, the “DNA lesions (Comet assay)” value with HepG2 cells was “induced DNA lesions”. For the same compound, in the series on p-Akt and p-MAPK, the “downstream p-Akt and p-MAPK signalings” value was “activated”.

As to `Cc1nc2ccc3c(=O)cc(-c4ccc(N5CCCC5)cc4)oc3c2[nH]1` [compound 13, 2-methyl-8-(4-(pyrrolidin-1-yl)phenyl)chromeno[7,8-d]imidazol-6(1H)-one], the ACINF in [7] (PO, 10 mg/kg) was determined as 1293 ng·min/mL. The “TrkB and Akt activation in primary neurons” value on TrkB [2] is “higher activity than compound 11 in triggering TrkB and Akt activation”. Further, the “TrkB activation in mouse brain” value on TrkB [3] (2 h) is reported as “triggers TrkB activation in mouse brain”. Further, in the series with male C57BL/6J mice [8], the “immobility in tail suspension test” value was “significantly reducing the immobility”. Moreover, in the series with male C57BL/6J mice [5] (setting [12]), the locomotor activity entry was “neither compound 13 nor 23 altered the motion activity”. At TrkB [6], the “TrkB activation in brain tissues (anti-p-TrkB Y816 and Y706 immunoblotting)” value is given as “markedly activated TrkB”; the “TrkB phosphorylation in hippocampus (immunohistochemistry, anti-p-TrkB 816)” value is “elevated TrkB phosphorylation in hippocampus”. Further, the “adduct formation (Comment)” value in series [9] is on record as “quite stable in vitro; also recorded: No adduct detected”. For the same compound, the hERG inhibition result at hERG is “did not possess any concentration-dependent inhibition activity of hERG; also recorded: trifling”. In series [10], the Binding classification entry is listed as “High Binding”. Besides, the “downstream p-Akt activity” value in the series with p-Akt and p-MAPK is “upregulated”.

Consider `O=c1cc(-c2ccc(N3CCCC3)cc2)oc2c1ccc1cc[nH]c12` [compound 23, 2-(4-(Pyrrolidin-1-yl)phenyl)pyrano[3,2-g]indol-4(9H)-one], for which the “TrkB and Akt activation in primary neurons” value on TrkB [2] was “higher activity than compound 11 in triggering TrkB and Akt activation”. In the series with male C57BL/6J mice [4] (2.5 mg/kg oral gavage once a day for 3 weeks), the “reduction of immobility in FST compared to vehicle control” value is “had no effect”. For the same compound, the “immobility in tail suspension test” value with male C57BL/6J mice [8] is given as “lacked efficacy”. Also, the locomotor activity result with male C57BL/6J mice [5] (setting [12]) is given as “neither compound 13 nor 23 altered the motion activity”. On TrkB [6], the “TrkB activation in brain tissues (anti-p-TrkB Y816 and Y706 immunoblotting)” value is “markedly activated TrkB”; the “TrkB phosphorylation in hippocampus (immunohistochemistry, anti-p-TrkB 816)” value was “elevated TrkB phosphorylation in hippocampus”. For the same compound, the “adduct formation (Comment)” value in [9] is listed as “formed numerous adducts”. Also, in series [10], the Binding classification entry is recorded as “High Binding”. The “downstream p-Akt activity” value in the series on p-Akt and p-MAPK was “upregulated”.

`CN(C)c1ccc(-c2cc(=O)c3ccc(O)c(O)c3o2)cc1` [compound 24, 4′-dimethylamino-7,8-dihydroxyflavone]: the Bioavailability result in [7] (PO, 5 mg/kg) is recorded as “not measurable”. This compound gave an AUC(0-t) in series [7] (mouse, plasma, iv, 1 mg/kg, AUClast) of around 98.8 ng·h/mL. Also, the half-life in series [7] (mouse, plasma, iv, 1 mg/kg, T1/2, IV) was around 9 min. In addition, at TrkB [3] (4 h), the “TrkB activation in mouse brain” value is “clearly activated the TrkB receptor; also recorded: strongest TrkB stimulatory effect”. In addition, the “downstream p-Akt and p-MAPK signalings” value in the series on p-Akt and p-MAPK is “activated”.

With `O=c1cc(-c2ccc(F)cc2)[nH]c2c(O)c(O)ccc12` [compound 25], the “TrkB activation (agonistic activity)” value at TrkB [2] is listed as “diminished agonistic activity”.

On to `O=c1cc(-c2ccccc2)[nH]c2c(O)c(O)ccc12` [compound 26], for which the “TrkB activation (agonistic activity)” value on TrkB [2] was “diminished agonistic activity”.

Regarding `CN(C)c1cccc(-c2cc(=O)c3ccc(O)c(O)c3o2)c1` [compound 28, 3′-dimethylamino-7,8-DHF], the “TrkB activation (agonistic activity)” value on TrkB [2] is “comparable activity as the lead compound 24”.

Regarding `O=c1cc(-c2ccc(N3CCOCC3)cc2)oc2c(O)c(O)ccc12` [compound 29, 4′-morpholino-7,8-DHF], the “TrkB activation (agonistic activity)” value on TrkB [2] is listed as “comparable activity as the lead compound 24”.

As for `O=c1cc(-c2ccc(F)cc2)oc2c(O)c(O)ccc12` [compound 30], at TrkB [2], the “TrkB activation (agonistic activity)” value was “inhibited its activity”.

With `O=c1c(F)c(-c2cccc(O)c2)oc2c(O)c(O)ccc12` [compound 32], the “TrkB activation (agonistic activity)” value at TrkB [2] is “did not significantly affect 7,8-DHF’s TrkB agonistic activity; also recorded: barely affects TrkB stimulatory activity”. At TrkB [3] (time course), the “time of peak TrkB activation in mouse brain” value was in the range of 1 to 2 h. Further, the “TrkB activation in mouse brain (time course comparison)” value on TrkB [3] (various time points) is given as “less effect on TrkB activation than compound 11”. Further, the “time at which p-Akt returned to the baseline” value with P-Akt S473 is reported as 8 h. The “time of peak p-Akt activation (ELISA)” value with P-Akt S473 (20 μg brain lysates) amounted to 1 h. In the series on male C57BL/6J mice [4], the “immobility in forced swim test” value was “significantly reduced the immobility”. For the same compound, the locomotor activity result in the series with male C57BL/6J mice [5] (setting [11]) is listed as “but not 32 significantly increased the locomotor activity”. For the same compound, the “TrkB phosphorylation in cortex and hippocampus” value at TrkB [6] was “clearly escalated TrkB phosphorylation”. Also, the “TrkA activation in mouse brain” value on TrkA receptor was “TrkB but not TrkA is activated”.

Consider `O=c1cc(-c2ccccc2)oc2c(O)c(O)cc(F)c12` [compound 33], for which, on TrkB [2], the “TrkB activation (agonistic activity)” value is listed as “did not significantly affect 7,8-DHF’s TrkB agonistic activity”.

As for `O=c1c(F)c(-c2ccccc2)oc2c(O)c(O)ccc12` [compound 34], the “TrkB activation (agonistic activity)” value at TrkB [2] is “did not significantly affect 7,8-DHF’s TrkB agonistic activity”.

In the case of `CN(C)c1ccc(-c2cc(=O)c3c(F)cc(O)c(O)c3o2)cc1` [compound 35], the “TrkB activation (agonistic activity)” value on TrkB [2] is on record as “did not significantly affect 7,8-DHF’s TrkB agonistic activity”.

As a reminder, the AUC(0-t) is exposure summed from dosing to a finite time, without extrapolation to infinity. A low value points to low exposure. The half-life is the time needed for the level to fall by half in the phase considered.
